Results: US20050014706A1, “Method of treating tuberculosis” (priority 2003, published 2005)
In brackets after ≈: the same amount, converted by molar mass. Where two headings read alike, the source gives them in different places.

Assays:
[1] = system: M. tuberculosis H37Rv; assay: MIC vs. M. tuberculosis H37Rv, microplate Alamar Blue assay (MABA); type: cell-based; details: for MIC / activity vs. M. tuberculosis in words: in vitro
[2] = system: VERO cells; assay: Cytotoxicity against VERO cells (MTS, 72 hours); details: for IC50: read-out: Vero IC50 (toxicity)
[3] = system: J774.1 macrophage cell line; assay: Cytotoxicity against J774.1 macrophage cell line; type: cell-based, murine; details: J774 cells, read-out: J774 IC50 (toxicity)
[4] = system: M. tuberculosis Erdman; type: in vivo, BALB/c mice; details: […]; 100 and 200 mg/kg qd (RU60887 100 mg/kg only)
[5] = Table 1a, 11,12-carbamate derivatives, read-out: Anti-TB Activity MIC
[6] = Table 2a, 11,12-diols, read-out: Anti-TB Activity MIC
[7] = Table 3, parallel-synthesis carbazate library products

cethromycin [ABT773, reference compound]
MIC against M. tuberculosis [1]: 3 µM
MIC [1, 5]: 3 µM
IC50 ([2]; Table 1a, Vero cells): > 105 µM

CC[C@H]1OC(=O)[C@H](C)[C@@H](O[C@H]2C[C@@](C)(OC)[C@@H](O)[C@H](C)O2)[C@H](C)[C@@H](O[C@@H]2O[C@H](C)C[C@H](N(C)C)[C@H]2O)[C@](C)(O)C[C@@H](C)/C(=N\OCOCc2ccccc2)[C@H](C)[C@@H](O)[C@]1(C)O [RU29558]
MIC [1, 6]: 7 µM (≈ 6.08 µg/mL)
IC50 ([2]; Table 2a, Vero cells): 28.2 µM

CC[C@H]1OC(=O)[C@H](C)[C@@H](O[C@H]2CC(C)(OC)[C@@H](O)[C@H](C)O2)[C@H](C)[C@@H](O[C@@H]2O[C@H](C)C[C@H](N(C)C)[C@H]2O)[C@](C)(OC)C[C@@H](C)C(=O)[C@H](C)[C@H]2N(NCc3cn(Cc4ccccc4)c4ccccc34)C(=O)O[C@]12C (stereo partly drawn) [C2′]
MIC [1, 7]: 7 µM (≈ 7.05 µg/mL)

CC[C@H]1OC(=O)[C@H](C)[C@@H](O[C@H]2CC(C)(OC)[C@@H](O)[C@H](C)O2)[C@H](C)[C@@H](O[C@@H]2O[C@H](C)C[C@H](N(C)C)[C@H]2O)[C@](C)(OC)C[C@@H](C)C(=O)[C@H](C)[C@H]2N(CCCCc3ccnc4ccccc34)C(=O)O[C@]12C (stereo partly drawn) [RU66080]
MIC [1, 5]: 0.44 µM (≈ 0.421 µg/mL)
IC50 ([2]; Table 1a, Vero cells): 8.1 µM
IC50 ([3]; Table 1a): 4.95 µM

CC[C@H]1OC(=O)[C@H](C)[C@@H](O[C@H]2CC(C)(OC)[C@@H](O)[C@H](C)O2)[C@H](C)[C@@H](O[C@@H]2O[C@H](C)C[C@H](N(C)C)[C@H]2O)[C@](C)(OC)C[C@@H](C)C(=O)[C@H](C)[C@H]2N(NCc3c(C)noc3C)C(=O)O[C@]12C (stereo partly drawn) [C6′]
MIC [1, 7]: >17 µM

CC[C@H]1OC(=O)[C@H](C)[C@@H](O[C@H]2CC(C)(OC)[C@@H](O)[C@H](C)O2)[C@H](C)[C@@H](O[C@@H]2O[C@H](C)C[C@H](N(C)C)[C@H]2O)[C@](C)(OC)C[C@@H](C)C(=O)[C@H](C)[C@H]2N(NCc3csc(-c4ccccc4)n3)C(=O)O[C@]12C (stereo partly drawn) [F9′]
MIC [1, 7]: 12.6 µM (≈ 12.1 µg/mL)

CCCCc1nc(CNN2C(=O)O[C@]3(C)[C@@H](CC)OC(=O)[C@H](C)[C@@H](O[C@H]4CC(C)(OC)[C@@H](O)[C@H](C)O4)[C@H](C)[C@@H](O[C@@H]4O[C@H](C)C[C@H](N(C)C)[C@H]4O)[C@](C)(OC)C[C@@H](C)C(=O)[C@H](C)[C@@H]23)c(Cl)[nH]1 (stereo partly drawn) [B7′]
MIC [1, 7]: >19 µM

CC[C@H]1OC(=O)[C@H](C)[C@@H](O[C@H]2CC(C)(OC)[C@@H](O)[C@H](C)O2)[C@H](C)[C@@H](O[C@@H]2O[C@H](C)C[C@H](N(C)C)[C@H]2O)[C@](C)(OC)C[C@@H](C)C(=O)[C@H](C)[C@H]2N(/N=C/c3cnc(-c4ccccc4)nc3C)C(=O)O[C@]12C (stereo partly drawn) [E6′]
MIC [1, 7]: 5 µM (≈ 4.84 µg/mL)

CC[C@H]1OC(=O)[C@H](C)[C@@H](O[C@H]2CC(C)(OC)[C@@H](O)[C@H](C)O2)[C@H](C)[C@@H](O[C@@H]2O[C@H](C)C[C@H](N(C)C)[C@H]2O)[C@](C)(OC)C[C@@H](C)C(=O)[C@H](C)[C@H]2N(NCc3cc(Br)cs3)C(=O)O[C@]12C (stereo partly drawn) [F11′]
MIC [1, 7]: 12.7 µM (≈ 12.2 µg/mL)

CO[C@H]1/C=C/O[C@@]2(C)Oc3c(C)c(O)c4c(O)c(c(/C=N/N5CCN(C)CC5)c(O)c4c3C2=O)NC(=O)/C(C)=C\C=C\[C@H](C)[C@H](O)[C@@H](C)[C@@H](O)[C@@H](C)[C@H](OC(C)=O)[C@@H]1C [RMP, Rifampin, reference compound]
MIC ([1]; Mycobacterium tuberculosis, H37RV, Table 1a, 11,12-carbamate derivatives, read-out: Anti-TB Activity MIC): 0.076 µM (≈ 0.0625 µg/mL)
IC50 ([2]; Chlorocebus sabaeus, Vero): 46.7 µM
IC50 ([3]; Mus musculus, J774.1, Table 1a): 32.7 µM

CC[C@H]1OC(=O)[C@H](C)[C@@H](O[C@H]2CC(C)(OC)[C@@H](O)[C@H](C)O2)[C@H](C)[C@@H](O[C@@H]2O[C@H](C)C[C@H](N(C)C)[C@H]2O)[C@](C)(OC)C[C@@H](C)C(=O)[C@H](C)[C@H]2N(NCc3c(-c4ccccc4)noc3C)C(=O)O[C@]12C (stereo partly drawn) [C10′]
MIC [1, 7]: 12 µM (≈ 11.5 µg/mL)

CC[C@H]1OC(=O)[C@H](C)[C@@H](O[C@H]2CC(C)(OC)[C@@H](O)[C@H](C)O2)[C@H](C)[C@@H](O[C@@H]2O[C@H](C)C[C@H](N(C)C)[C@H]2O)[C@](C)(OC)C[C@@H](C)C(=O)[C@H](C)[C@H]2N(NCC3=Cc4ccccc4OC3)C(=O)O[C@]12C (stereo partly drawn) [G6′]
MIC [1, 7]: 11 µM (≈ 10.3 µg/mL)

CC[C@H]1OC(=O)[C@H](C)C(=O)[C@H](C)[C@@H](O[C@@H]2O[C@H](C)C[C@H](N(C)C)[C@H]2O)[C@](C)(OC)C[C@@H](C)C(=NOC2CCCN(C/C=C/c3ccc(-c4ccccc4)cc3)C2)[C@H](C)[C@@H](O)[C@]1(C)O (stereo partly drawn) [RU61804]
MIC [1, 6]: 0.5 µM (≈ 0.439 µg/mL)
IC50 ([2]; Table 2a, Vero cells): 9.12 µM
IC50 ([3]; Table 2a): 3.9 µM

CC[C@H]1OC(=O)[C@H](C)[C@@H](O[C@H]2CC(C)(OC)[C@@H](O)[C@H](C)O2)[C@H](C)[C@@H](O[C@@H]2O[C@H](C)C[C@H](N(C)C)[C@H]2O)[C@](C)(OC)C[C@@H](C)C(=O)[C@H](C)[C@H]2N(NCc3cccn3CCC#N)C(=O)O[C@]12C (stereo partly drawn) [E10′]
MIC [1, 7]: 20 µM (≈ 18.4 µg/mL)

CC[C@H]1OC(=O)[C@H](C)[C@@H](O[C@H]2CC(C)(OC)[C@@H](O)[C@H](C)O2)[C@H](C)[C@@H](O[C@@H]2O[C@H](C)C[C@H](N(C)C)[C@H]2O)[C@](C)(OC)C[C@@H](C)C(=O)[C@H](C)[C@H]2N(NCc3ccnc4ccccc34)C(=O)O[C@]12C (stereo partly drawn) [D11′]
MIC [1, 7]: 16 µM (≈ 14.9 µg/mL)

CC[C@H]1OC(=O)[C@H](C)[C@@H](O[C@H]2CC(C)(OC)[C@@H](O)[C@H](C)O2)[C@H](C)[C@@H](O[C@@H]2O[C@H](C)C[C@H](N(C)C)[C@H]2O)[C@](C)(OC)C[C@@H](C)C(=O)[C@H](C)[C@H]2N(NCCCc3ccccc3)C(=O)O[C@]12C (stereo partly drawn) [A2′]
MIC [1, 7]: 10 µM (≈ 9.06 µg/mL)

CC[C@H]1OC(=O)[C@H](C)[C@@H](O[C@H]2CC(C)(OC)[C@@H](O)[C@H](C)O2)[C@H](C)[C@@H](O[C@@H]2O[C@H](C)C[C@H](N(C)C)[C@H]2O)[C@](C)(OC)C[C@@H](C)C(=O)[C@H](C)[C@H]2N(/N=C/c3cc(-c4cccs4)on3)C(=O)O[C@]12C (stereo partly drawn) [C8′]
MIC [1, 7]: ?9 μM

CC[C@H]1OC(=O)[C@H](C)C(=O)[C@H](C)[C@@H](O[C@@H]2O[C@H](C)C[C@H](N(C)C)[C@H]2O)[C@](C)(OC)C[C@@H](C)C(=O)[C@H](C)[C@H]2N(CCCCn3cnc(-c4cccnc4)c3)C(=O)O[C@]12C [Telithromycin, reference compound]
MIC [1, 5]: 48 µM (≈ 39 µg/mL)
MIC / activity vs. M. tuberculosis in words [1]: even less active than clarithromycin

CC[C@H]1OC(=O)[C@H](C)[C@@H](O[C@H]2CC(C)(OC)[C@@H](O)[C@H](C)O2)[C@H](C)[C@@H](O[C@@H]2O[C@H](C)C[C@H](N(C)C)[C@H]2O)[C@](C)(OC)C[C@@H](C)C(=O)[C@H](C)[C@H]2N(NCc3c[nH]c(=O)[nH]c3=O)C(=O)O[C@]12C (stereo partly drawn) [E8′]
MIC [1, 7]: >20 µM

CC[C@H]1OC(=O)[C@H](C)C(=O)[C@H](C)[C@@H](O[C@@H]2O[C@H](C)C[C@H](N(C)C)[C@H]2O)[C@](C)(OC)C[C@@H](C)C(=O)[C@H](C)[C@H]2N(CCCCn3ccnc3)C(=O)O[C@]12C [RU61205]
MIC [1, 5]: 112 µM (≈ 82.3 µg/mL)

CC[C@H]1OC(=O)[C@H](C)[C@@H](O[C@H]2CC(C)(OC)[C@@H](O)[C@H](C)O2)[C@H](C)[C@@H](O[C@@H]2O[C@H](C)C[C@H](N(C)C)[C@H]2O)[C@](C)(OC)C[C@@H](C)C(=O)[C@H](C)[C@H]2N(NCc3c(Cl)cccc3Cl)C(=O)O[C@]12C (stereo partly drawn) [H1′]
MIC [1, 7]: 11 µM (≈ 10.4 µg/mL)

CC[C@H]1OC(=O)[C@H](C)[C@@H](O[C@H]2CC(C)(OC)[C@@H](O)[C@H](C)O2)[C@H](C)[C@@H](O[C@@H]2O[C@H](C)C[C@H](N(C)C)[C@H]2O)[C@](C)(OC)C[C@@H](C)C(=O)[C@H](C)[C@H]2N(NCc3cc4ccccc4s3)C(=O)O[C@]12C (stereo partly drawn) [G2′]
MIC [1, 7]: 11 µM (≈ 10.3 µg/mL)

CC[C@H]1OC(=O)[C@H](C)[C@@H](O[C@H]2CC(C)(OC)[C@@H](O)[C@H](C)O2)[C@H](C)[C@@H](O[C@@H]2O[C@H](C)C[C@H](N(C)C)[C@H]2O)[C@](C)(OC)C[C@@H](C)C(=O)[C@H](C)[C@H]2N(NCc3cccnc3NC(=O)C(C)(C)C)C(=O)O[C@]12C (stereo partly drawn) [E4′]
MIC [1, 7]: >27 µM

CC[C@H]1OC(=O)[C@H](C)[C@@H](O[C@H]2CC(C)(OC)[C@@H](O)[C@H](C)O2)[C@H](C)[C@@H](O[C@@H]2O[C@H](C)C[C@H](N(C)C)[C@H]2O)[C@](C)(OC)C[C@@H](C)C(=O)[C@H](C)[C@H]2N(NCc3cnn(-c4ccc(F)cc4)c3C)C(=O)O[C@]12C (stereo partly drawn) [D7′]
MIC [1, 7]: 13 µM (≈ 12.7 µg/mL)

CC[C@H]1OC(=O)[C@H](C)C(=O)[C@H](C)[C@@H](O[C@@H]2O[C@H](C)C[C@H](N(C)C)[C@H]2O)[C@](C)(OC)C[C@@H](C)C(=NOCOCCOC)[C@H](C)[C@@H](O)[C@]1(C)O [RU54615]
MIC [1, 6]: >128 µM

CCCCCCCCCCN1CCCC(O/N=C2\[C@H](C)C[C@@](C)(OC)[C@H](O[C@@H]3O[C@H](C)C[C@H](N(C)C)[C@H]3O)[C@@H](C)C(=O)[C@@H](C)C(=O)O[C@H](CC)[C@@](C)(O)[C@H](O)[C@H]2C)C1 (stereo partly drawn) [RU60887]
MIC ([1]; Mycobacterium tuberculosis, H37RV, Table 2a, 11,12-diols, read-out: Anti-TB Activity MIC): 0.125 µM (≈ 0.103 µg/mL)
MIC ([1]; Mycobacterium tuberculosis, H37RV, read-out: minimum inhibitory concentration (MIC) against M. tuberculosis): 0.12 µM (≈ 0.0991 µg/mL)
MIC / activity vs. M. tuberculosis in words [1]: very low
activity against M. tuberculosis in the acute phase of infection [4]: less activity
IC50 ([2]; Chlorocebus sabaeus, Vero): 27.6 µM
toxicity / cytotoxicity in words ([2]; in vitro study): comparable to clarithromycin
IC50 ([3]; Mus musculus, J774.1, Table 2a): 4.7 µM
